From PubChem BioAssay AID256 (DTP/NCI, 2004)
“And” between values parts separate entries of the source, which are not always exact repeats. Equal entries are not always repeated. Inconclusive results and toxic doses are left out. The calls were made as follows: active = survival T/C of 150% or more; inactive = T/C below 125% in these data.

Tested on: CD2F1 mice, L1210 leukemia ip, survival T/C
Assay: NCI In Vivo Anticancer Drug Screen. Data for tumor model L1210 Leukemia (intraperitoneal) in CD2F1 (CDF1) mice
Conditions: higher = longer survival
In short: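 Compound-dosed mice with transplantable tumor versus matched vehicle controls; endpoint ratio T/C reported.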

[1] = endpoint: mean survival time, dose: 50.0 mg/kg/injection, schedule: Q01DX009 (ip), vehicle: saline with Tween-80
[2] = endpoint: mean survival time, dose: 100.0 mg/kg/injection, schedule: Q01DX009 (ip), vehicle: saline with Tween-80
[3] = endpoint: mean survival time, dose: 100.0 mg/kg/injection, schedule: Q04DX003 (ip), vehicle: saline
[4] = endpoint: mean survival time, dose: 200.0 mg/kg/injection, schedule: Q04DX003 (ip), vehicle: saline
[5] = endpoint: mean survival time, dose: 400.0 mg/kg/injection, schedule: Q04DX003 (ip), vehicle: saline
[6] = endpoint: mean survival time, dose: 100.0 mg/kg/injection, schedule: Q04DX002 (ip), vehicle: saline with Tween-80
[7] = endpoint: mean survival time, dose: 100.0 mg/kg/injection, schedule: Q04DX003 (ip), vehicle: saline with Tween-80
[8] = endpoint: mean survival time, dose: 200.0 mg/kg/injection, schedule: Q01DX009 (ip), vehicle: saline with Tween-80
[9] = endpoint: mean survival time, dose: 200.0 mg/kg/injection, schedule: Q04DX002 (ip), vehicle: saline with Tween-80
[10] = endpoint: mean survival time, dose: 200.0 mg/kg/injection, schedule: Q04DX003 (ip), vehicle: saline with Tween-80
[11] = endpoint: mean survival time, dose: 400.0 mg/kg/injection, schedule: Q04DX002 (ip), vehicle: saline with Tween-80
[12] = endpoint: mean survival time, dose: 6.25 mg/kg/injection, schedule: Q04DX002 (ip), vehicle: saline with Tween-80
[13] = endpoint: mean survival time, dose: 12.5 mg/kg/injection, schedule: Q04DX002 (ip), vehicle: saline with Tween-80
[14] = endpoint: mean survival time, dose: 25.0 mg/kg/injection, schedule: Q04DX002 (ip), vehicle: saline with Tween-80
[15] = endpoint: mean survival time, dose: 50.0 mg/kg/injection, schedule: Q01DX009 (ip), vehicle: Klucel (hydroxypropylcellulose) (HPC)
[16] = endpoint: mean survival time, dose: 100.0 mg/kg/injection, schedule: Q01DX009 (ip), vehicle: Klucel (hydroxypropylcellulose) (HPC)

Measured: T/C

CC1=C(C(N)=O)C(c2ccccc2)NC(=S)N1 (stereo not drawn)
inactive: endpoint: median survival time, dose: 25.0 mg/kg/injection, schedule: Q01DX009 (ip), vehicle: Klucel (hydroxypropylcellulose) (HPC) 101 % of control | endpoint: median survival time, dose: 50.0 mg/kg/injection, schedule: Q01DX009 (ip), vehicle: Klucel (hydroxypropylcellulose) (HPC) 105 % of control | endpoint: median survival time, dose: 100.0 mg/kg/injection, schedule: Q01DX009 (ip), vehicle: Klucel (hydroxypropylcellulose) (HPC) 102 % of control | endpoint: median survival time, dose: 200.0 mg/kg/injection, schedule: Q01DX009 (ip), vehicle: Klucel (hydroxypropylcellulose) (HPC) 112 % of control | endpoint: median survival time, dose: 400.0 mg/kg/injection, schedule: Q01DX009 (ip), vehicle: Klucel (hydroxypropylcellulose) (HPC) 103 % of control

COC(=O)Nc1cccc(OC(=O)NC(C)(C)CC(C)(C)C)c1
inactive: endpoint: mean survival time, dose: 25.0 mg/kg/injection, schedule: Q01DX009 (ip), vehicle: saline with Tween-80 101 % of control | [1] 101 % of control | [2] 97 % of control

CCCC(CCC)=NCCN=C(CCC)CCC
inactive: endpoint: mean survival time, dose: 100.0 mg/kg/injection, schedule: Q04DX003 (ip), vehicle: saline sonified 97 % of control | endpoint: mean survival time, dose: 200.0 mg/kg/injection, schedule: Q04DX003 (ip), vehicle: saline sonified 97 % of control | endpoint: mean survival time, dose: 400.0 mg/kg/injection, schedule: Q04DX003 (ip), vehicle: saline sonified 97 % of control

NC(=O)c1csc(C2OC(CO)C(O)C2O)[n+]1[O-] (stereo not drawn)
inactive: endpoint: median survival time, dose: 9.38 mg/kg/injection, schedule: Q01DX005 (ip), vehicle: saline 102 % of control | endpoint: median survival time, dose: 18.75 mg/kg/injection, schedule: Q01DX005 (ip), vehicle: saline 101 % of control | endpoint: median survival time, dose: 37.5 mg/kg/injection, schedule: Q01DX005 (ip), vehicle: saline 103 % of control | endpoint: median survival time, dose: 75.0 mg/kg/injection, schedule: Q01DX005 (ip), vehicle: saline 104 % of control | endpoint: median survival time, dose: 150.0 mg/kg/injection, schedule: Q01DX005 (ip), vehicle: saline 104 % of control

CC([NH-])c1ccccc1.[Cl][Pt]([Cl])[Cl] (stereo not drawn)
inactive: [3] 101 % of control | [4] 100 % of control | [5] 101 % of control

COc1cc2ccc(-c3cc(C(=O)O)c4ccccc4n3)cc2cc1OC
inactive: endpoint: mean survival time, dose: 75.0 mg/kg/injection, schedule: Q01DX001 (ip), vehicle: saline 93 % of control | endpoint: mean survival time, dose: 150.0 mg/kg/injection, schedule: Q01DX001 (ip), vehicle: saline 93 % of control

Cc1cn(C2CC(O)C(CO)O2)c(=O)nc1NCC12CC3CC(CC(C3)C1)C2 (stereo not drawn)
inactive: endpoint: median survival time, dose: 12.5 mg/kg/injection, schedule: Q01DX005 (ip), vehicle: distilled water + Tween-80 105 % of control | endpoint: median survival time, dose: 25.0 mg/kg/injection, schedule: Q01DX005 (ip), vehicle: distilled water + Tween-80 104 % of control | endpoint: median survival time, dose: 50.0 mg/kg/injection, schedule: Q01DX005 (ip), vehicle: distilled water + Tween-80 102 % of control | endpoint: median survival time, dose: 100.0 mg/kg/injection, schedule: Q01DX005 (ip), vehicle: distilled water + Tween-80 94 % of control

CCOC(=O)c1ccc(NC(=O)CCOc2ccccc2)cc1
inactive: [2] 92 % of control and 101 % of control | [6] 91 % of control | [7] 86 % of control | [8] 92 % of control and 96 % of control | [9] 86 % of control and 87 % of control | [10] 86 % of control | endpoint: mean survival time, dose: 400.0 mg/kg/injection, schedule: Q01DX009 (ip), vehicle: saline with Tween-80 89 % of control and 95 % of control | [11] 94 % of control

O=C(O)CCC(=O)c1ccc(Cl)cc1
inactive: endpoint: mean survival time, dose: 3.13 mg/kg/injection, schedule: Q04DX002 (ip), vehicle: saline with Tween-80 112 % of control | [12] 97 % of control | [13] 93 % of control | [14] 97 % of control | endpoint: median survival time, dose: 200.0 mg/kg/injection, schedule: Q04DX002 (ip), vehicle: saline with Tween-80 94 % of control

O/N=C1\c2ccccc2-c2ccc(F)cc21
inactive: endpoint: mean survival time, dose: 50.0 mg/kg/injection, schedule: Q01DX001 (ip), vehicle: carboxymethylcellulose (CMC) 104 % of control | endpoint: mean survival time, dose: 100.0 mg/kg/injection, schedule: Q01DX001 (ip), vehicle: carboxymethylcellulose (CMC) 108 % of control | endpoint: mean survival time, dose: 200.0 mg/kg/injection, schedule: Q01DX001 (ip), vehicle: carboxymethylcellulose (CMC) 104 % of control | endpoint: mean survival time, dose: 400.0 mg/kg/injection, schedule: Q01DX001 (ip), vehicle: carboxymethylcellulose (CMC) 102 % of control

CC(C)C1CCC(C)(Cl)C2CCC(C)(Cl)CC12 (stereo not drawn)
inactive: [7] 96 % of control | [3] 104 % of control | [10] 91 % of control | [4] 102 % of control | endpoint: mean survival time, dose: 400.0 mg/kg/injection, schedule: Q04DX003 (ip), vehicle: saline with Tween-80 93 % of control | [5] 95 % of control

Cc1ccc(S(=O)(=O)N/N=C/c2ccccc2)cc1
inactive: [15] 95 % of control | [16] 98 % of control | endpoint: mean survival time, dose: 200.0 mg/kg/injection, schedule: Q01DX009 (ip), vehicle: Klucel (hydroxypropylcellulose) (HPC) 101 % of control | endpoint: mean survival time, dose: 400.0 mg/kg/injection, schedule: Q01DX009 (ip), vehicle: Klucel (hydroxypropylcellulose) (HPC) 91 % of control

O=C1OCCC1=P(c1ccccc1)(c1ccccc1)c1ccccc1
inactive: [1] 100 % of control | [2] 96 % of control | [8] 96 % of control

CN(Cc1cnc2nc(N)nc(N)c2n1)c1ccc(C(=O)NC(CCC(=O)O)C(=O)O)cc1Br (stereo not drawn)
inactive: endpoint: mean survival time, dose: 6.25 mg/kg/injection, schedule: Q01DX Z (ip), vehicle: saline 104 % of control

Cc1cc(C)cc(C(C)C)c1
inactive: [2] 98 % of control | [8] 101 % of control

Cc1ccc(NCCNCC(C)(C)O)c2c(=O)c3ccccc3sc12
inactive: endpoint: mean survival time, dose: 12.5 mg/kg/injection, schedule: Q04DX003 (ip), vehicle: saline 100 % of control | endpoint: mean survival time, dose: 25.0 mg/kg/injection, schedule: Q04DX003 (ip), vehicle: saline 103 % of control | endpoint: mean survival time, dose: 50.0 mg/kg/injection, schedule: Q01DX001 (ip), vehicle: saline 93 % of control | endpoint: mean survival time, dose: 50.0 mg/kg/injection, schedule: Q04DX003 (ip), vehicle: saline 92 % of control

CCOC(NCc1ccc(OC)c(OC)c1)OCC
inactive: endpoint: mean survival time, dose: 100.0 mg/kg/injection, schedule: Q01DX001 (ip), vehicle: saline 98 % of control | endpoint: mean survival time, dose: 200.0 mg/kg/injection, schedule: Q01DX001 (ip), vehicle: saline 98 % of control

COC(=O)C1(C)CCC(=O)O1 (stereo not drawn)
inactive: [6] 98 % of control | [9] 98 % of control | [11] 102 % of control

O=C(Cl)C1CCCCC1
inactive: endpoint: mean survival time, dose: 100.0 mg/kg/injection, schedule: Q01DX001 (ip), vehicle: saline with Tween-80 93 % of control | endpoint: mean survival time, dose: 200.0 mg/kg/injection, schedule: Q01DX001 (ip), vehicle: saline with Tween-80 97 % of control | endpoint: mean survival time, dose: 400.0 mg/kg/injection, schedule: Q01DX001 (ip), vehicle: saline with Tween-80 89 % of control

NC(=O)c1c(Br)n(C2OC(CO)C(O)C2O)c2ncnc(N)c12 (stereo not drawn)
inactive: [1] 105 % of control

CC1CCCC(CN=Cc2ccccc2O)[N-]1.CC1CCCC(CN=Cc2ccccc2O)[N-]1.[Ni+2] (stereo not drawn)
inactive: [12] 98 % of control | [13] 95 % of control | [14] 91 % of control and 95 % of control | endpoint: mean survival time, dose: 50.0 mg/kg/injection, schedule: Q04DX002 (ip), vehicle: saline with Tween-80 91 % of control | [6] 97 % of control

COc1cccc(NC2=NCCO2)c1
inactive: [7] 96 % of control | [10] 98 % of control

Oc1ccc(CC2=NCCc3cc(O)c(O)cc32)cc1O
inactive: endpoint: mean survival time, dose: 5.0 mg/kg/injection, schedule: Q01DX001 (ip), vehicle: saline 104 % of control | endpoint: mean survival time, dose: 10.0 mg/kg/injection, schedule: Q01DX001 (ip), vehicle: saline 98 % of control | endpoint: mean survival time, dose: 20.0 mg/kg/injection, schedule: Q01DX001 (ip), vehicle: saline 98 % of control | endpoint: mean survival time, dose: 40.0 mg/kg/injection, schedule: Q01DX001 (ip), vehicle: saline 100 % of control | endpoint: mean survival time, dose: 80.0 mg/kg/injection, schedule: Q01DX001 (ip), vehicle: saline 102 % of control

O=C(Nc1ccc(N=C=S)cc1Cl)c1cc(Cl)cc(Cl)c1O
inactive: endpoint: mean survival time, dose: 6.25 mg/kg/injection, schedule: Q01DX009 (ip), vehicle: Klucel (hydroxypropylcellulose) (HPC) 91 % of control and 104 % of control | endpoint: mean survival time, dose: 12.5 mg/kg/injection, schedule: Q01DX009 (ip), vehicle: Klucel (hydroxypropylcellulose) (HPC) 97 % of control | endpoint: mean survival time, dose: 25.0 mg/kg/injection, schedule: Q01DX009 (ip), vehicle: Klucel (hydroxypropylcellulose) (HPC) 96 % of control and 109 % of control | [15] 113 % of control and 103 % of control | [16] 97 % of control
